This note sets out measurements from patent US20210195900A1, “FUNGICIDAL MIXTURES FOR SOYBEAN DISEASES” (priority 2018, published 2021).

In one test the test system is soybeans. Kind of test: Soybean seed treatment field trial, grain yield (multi-year, multi-location). It counts as in vivo. The settings on record: control 60.4. The method, then: (§1) Soybean seeds treated with penthiopyrad, fluopyram, a combination thereof, at indicated application rates, along with appropriate controls were grown in multiple field locations under a variety of pest pressures including sudden death syndrome (SDS).
(§2) For those evaluations shown herein, the Treatment value is greater than or less than CONTROL, and statistically significant at (P-value <0.10).

Test [1] concerns Fusarium virguliforme (SDS). Kind of test: Soybean seed treatment field trial, SDS score at stage R6. The settings on record: 9 = no disease, control 6.1. It is filed as in vivo. The method, then:
as §1
Level of tolerance to Fusarium virguliforme (SDS) in soybean varieties based on SDS score was measured in multiple locations across multiple years. SDS score was determined at or during the soybean developmental stage R6.
Scale for assigning tolerance to SDS scores:
Scale 9=clean, no disease
Scale 8=Up to 10% of plants showing mild symptoms (yellow, chlorotic spots)
Scale 7=Up to 20% plants showing mild symptoms
Scale 6=up to 30% plants showing medium symptoms (necrotic spots develop in the chlorotic areas; considered the lowest ‘acceptable’ score)
Scale 5=40% or more of plants showing medium symptoms
Scale 4=50% or more plants showing medium to heavy symptoms
3, 2, or 1=1/3, 2/3, or complete leaf drop, respectively.
as §2

On to `O=C(NCCc1ncc(C(F)(F)F)cc1Cl)c1ccccc1C(F)(F)F` [Fluopyram, N-{2-[3-Chloro-5-(trifluoromethyl)-2-pyridinyl]ethyl}-2-(trifluoromethyl)benzamide], for which the “Multi-year, Multi-loc Yield” value in the test on soybeans (fluopyram 0.075 mg ai/seed) came to 62.2 bu/acre; in the test on soybeans (fluopyram 0.15 mg ai/seed), 62.5 bu/acre. In addition, the “SDS Score (1-9)” value is on record as 6.8 in test [1] (fluopyram 0.075 mg ai/seed) and 7.2 in test [1] (fluopyram 0.15 mg ai/seed).

Take `CC(C)CC(C)c1sccc1NC(=O)c1cn(C)nc1C(F)(F)F` (stereo not drawn) [Penthiopyrad, N-[2-(1,3-dimethylbutyl)-3-thienyl]-1-methyl-3-(trifluoromethyl)-1H-pyrazole-4-carboxamide]: the “Multi-year, Multi-loc Yield” value in the test with soybeans (penthiopyrad 0.25 mg ai/seed) turned out to be 62.6 bu/acre. Moreover, the “SDS Score (1-9)” value in test [1] (penthiopyrad 0.25 mg ai/seed) is reported as 6.7.
